Here are results for four compounds from patent US7803757B2, “Peptides based on the sequence of human lactoferrin and their use” (PharmaSurgics in Sweden AB, priority 1998, dated 2010).

Values after ≈ are worked out from the molar mass of the structure shown. Ends that are not written are not given here.

One assay has as its system C. albicans (ATCC 64549). Nature of the assay: microbe, parasite or virus in culture. The settings on record: for MMC99%: C. albicans ATCC 64549, 2×10^5 cells/ml, BHI diluted 1/100; for MIC: Candida albicans, ATCC64549. Here is the method: (§1) In the examples, the minimal microbicidal concentrations (MMC) and minimal inhibitory concentrations (MIC) were determined as follows, unless otherwise specified in the examples. Bacterial or fungal strains were cultured in BHI medium over night at 37° C. A volume of the culture was transferred to a new tube with BHI and incubated for two more hours. Thereafter the cells were spun down and the pellet was suspended in BHI medium diluted 1/100 (1% BHI). The concentration of bacterial or fungal cells was spectrophotometrically determined at 650 nm. The microbial concentrations were also determined by viable counts. Peptides serially diluted in 1% BHI by twofold or tenfold steps were added in triplicate to the wells of a microtiterplate (200 μl per well). The bacterial or fungal cell solutions were added in 10 μl volumes to give a final concentration of approximately 1-5×10^5 cells per ml in the well. The microplate was incubated at 37° C. in a humid chamber for two hours. Thereafter 5 μl was taken from each well and added as a drop onto a blood agar plate and incubated over night at 37° C. The microplate was incubated for another 20 hours at 37° C. and thereafter analysed spectrophotometrically at 650 nm in a microplate reader (Emax, Molecular Devices, USA). The concentration of peptide causing a 99% reduction of the inoculum after 2 hours of incubation was defined as the MMC99%. The MIC value was defined as the concentration giving no increase in the absorbance value above the background level after 20 hours of incubation.
In this example the fungicidal activity of one of the peptides according to the invention, the peptide with SEQ. ID. NO. 7, was compared to the conventional antifungal agents flucytosine and fluconazole, and also to human lactoferrin (hLF). The antifungal agents were tested on C. albicans (ATCC 64549) in a concentration of 2×10^5 cells/ml. The tests were performed in BHI medium diluted 1/100.

A further assay concerns C. albicans. The experiment in a line: microbe, parasite or virus in culture. Conditions: C. albicans, BHI diluted 1/100, twofold dilutions from 20 μg/ml. The format is cell-based. The procedure: as §1
Also in this example one of the peptides according to the invention—this time the peptide with SEQ. ID. NO. 4, was compared to a conventional fungicide, amphotericin. The antifungal activity against C. albicans was studied. Twofold serial dilutions with a starting concentration of 20 μg/ml were used. BHI diluted 1/100 was used as growth medium.

Another assay relates to E. faecalis. The experiment in a line: killing of bacteria at fixed peptide concentration, E. faecalis (Example 12). In kind it is cell-based. The settings on record: peptide 25 μg/ml. The procedure: (§2) In this example, the peptides according to the invention were used to study the effect on the killing of different bacteria.
(§3) The peptides were used at a concentration of 25 μg/ml.

For another assay, the system named is C. albicans (ATCC64549). The format is cell-based. The method, boiled down: (§4)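 Microbes at ~1–5×10^5 cells/mL in 1% BHI exposed to peptides (1, 10, 25, 100 µg/ml) at 37 °C. MMC99%: concentration killing 99% of inoculum after 2 h, by spotting onto blood agar. MIC: no absorbance rise at 650 nm above background after a further 20 h.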
In the next assay the test system is E. coli O6. The format is cell-based. In a few lines:
as §4

Another assay concerns S. aureus. The experiment in a line: killing of bacteria at fixed peptide concentration, S. aureus (Example 12). The format is cell-based. Conditions: peptide 25 μg/ml. Here is the method:
as §2, §3

For the next assay, the system named is K. pneumoniae. The experiment in a line: killing of bacteria at fixed peptide concentration, K. pneumoniae (Example 12). In kind it is cell-based. Conditions: peptide 25 μg/ml. The procedure: as §2, §3
A further assay has as its system S. epidermis. The experiment in a line: killing of bacteria at fixed peptide concentration, S. epidermis (Example 12). In kind it is cell-based. The settings on record: peptide 25 μg/ml. Here is the method:
as §2, §3

Assay [1] deals with C. albicans yeast cells (ATCC64549). Nature of the assay: killing and growth inhibition of C. albicans at pH 4.5 (Example 11). In kind it is cell-based. On the set-up: key to C. albicans inhibition (OD650): + = no increase in OD650 is seen; − = OD650 continues to increase. Conditions: pH 4.5, 1% BHI, 25 μg/ml of the peptide. In a few lines:
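Yeast cells exposed 2 h at pH 4.5 to 25 µg/ml peptide in 1% BHI, then plated on blood agar. Killing scored as 100% and 99% fungicidal effect; growth inhibition read as no OD650 increase after a further 18 h.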

The next assay has as its system P. aeruginosa. Nature of the assay: killing of bacteria at fixed peptide concentration, P. aeruginosa (Example 12). In kind it is cell-based. The settings on record: peptide 25 μg/ml. Here is the method: as §2, §3
The test system of another assay is multiresistant S. aureus. Nature of the assay: bactericidal activity, multiresistant S. aureus (Example 18). Conditions: multiresistant S. aureus 5.0×10^5 per ml. The format is cell-based. Here is the method:
In this example the bactericidal activity of two of the peptides according to the invention was studied in a test with a multiresistant S. aureus. A bacterial solution with a concentration of 5.0×10^5 S. aureus bacterial per ml was used. The concentration of each peptide needed to kill 99% of the bacteria (MMC99%) was determined after 2 hours and after 24 hours of incubation at 37° C.

In the assay with C. albicans (ATCC 64549), `Nc1[nH]c(=O)ncc1F` [Flucytosine, flucytosine, reference compound] registered an MMC99% of more than 500 µg/mL and an MIC of 250 µg/mL (≈ 1940 µM).

In the assay with C. albicans (ATCC 64549), `OC(Cn1cncn1)(Cn1cncn1)c1ccc(F)cc1F` [Fluconazole, fluconazole, reference compound] showed an MMC99% of more than 500 µg/mL and an MIC of more than 500 µg/mL.

`C[C@@H]1[C@H](O)[C@@H](C)/C=C/C=C/C=C/C=C/C=C/C=C/C=C/[C@H](O[C@@H]2O[C@H](C)[C@@H](O)[C@H](N)[C@@H]2O)C[C@@H]2O[C@](O)(C[C@@H](O)C[C@@H](O)[C@H](O)CC[C@@H](O)C[C@@H](O)CC(=O)O[C@H]1C)C[C@H](O)[C@H]2C(=O)O` [Amphotericin, amphotericin, reference compound] yielded an MMC99% in the assay with C. albicans of 2.5 µg/mL. For the same compound, in the assay with C. albicans (Candida albicans, read-out: MIC), the MIC is 0.6 µg/mL (≈ 0.649 µM).

Turning to KCFQWQRNMRKVR [Peptide 48], the “killing of bacteria: E. faecalis” value with E. faecalis is recorded as “+ (+ = 99% of the bacteria are killed)”. Besides, the MIC with C. albicans (ATCC64549) (ATCC64549) and in the assay with E. coli O6 (O6) was 10 µg/mL in each case. Also, the MMC99% is 10 µg/mL in the assay with C. albicans (ATCC64549) (C. albicans, tested at 1, 10, 25 and 100 μg/ml of peptide); 10 µg/mL with E. coli O6 (E. coli O6, tested at 1, 10, 25 and 100 μg/ml of peptide); 5.0 µg/mL in the assay on multiresistant S. aureus (2 hours at 37° C.); “≦0.32 μg/ml” in the assay with multiresistant S. aureus (24 hours at 37° C.). In addition, in the assay with S. aureus, the “killing of bacteria: S. aureus” value was “+ (+ = 99% of the bacteria are killed)”. Besides, the “killing of bacteria: K. pneumoniae” value in the assay with K. pneumoniae is “+ (+ = 99% of the bacteria are killed)”. In addition, the “killing of bacteria: S. epidermis” value in the assay on S. epidermis was “+ (+ = 99% of the bacteria are killed)”. Further, the “C. albicans inhibition (OD650)” value in assay [1] (OD650 after an additional 18 hours) is listed as “+”. Besides, the “C. albicans killing: 99%” value in assay [1] (2 hours) is “+ (+ = 100/99% of the bacteria are killed)”. For the same compound, in [1] (2 hours), the “C. albicans killing: 100%” value is “+ (+ = 100/99% of the bacteria are killed)”. Also, the “killing of bacteria: P. aeruginosa” value with P. aeruginosa is reported as “+ (+ = 99% of the bacteria are killed)”.
